Data: patent publication US12263175B2, “Optimised dosage of diaminophenothiazines in populations” (WisTa Laboratories Ltd., priority 2018, dated 2025)

Assay: Treatment-emergent adverse events, three Phase 3 double-blind studies, LMTM pooled safety population
Type: in vivo, human
From the text: Three Phase 3, double-blind, controlled studies of LMTM have been completed (one each in subjects with mild and mild to moderate AD and one in subjects with bvFTD). Results of the AD studies have been published (Gauthier et al., 2016; Wilcock et al., 2018).
In these three studies, 1897 subjects received at least one dose of LMTM (Safety Population [Five additional subjects with AD, participating at one site in Study TRx-237-005, received a dose of study drug but were excluded from all analyses due to GCP violations], 1679 subjects with AD and 218 subjects with bvFTD). Of these, 860 subjects received the control (LMTM 8 mg/day, 750 with AD and 110 with bvFTD) and 1037 subjects received at least one dose of LMTM in the higher doses of 150 to 250 mg/day (929 with AD and 108 with bvFTD).
The incidence of the most common TEAEs are summarised by dose in the following Table EX1. This includes TEAEs that occurred at an incidence of ≥2.0% either in subjects randomised to LMTM 8 mg/day or higher doses (150 to 250 mg/day). The subset of TEAEs that were severe in intensity are also included.
The TEAEs are further analysed by using groupings of related MedDRA (Medical Dictionary for Regulatory Activities) preferred terms to better estimate the incidence of potentially treatment related adverse events. The incidence of all groupings for subjects categorised by dose (8 mg/day versus higher doses of 150 to 250 mg/day) is shown in the following Table EX2: […]

[1] = LMTM 8 mg/day (N = 860), Severe Intensity
[2] = subjects treated with LMTM 8 mg/day

In the case of `CN(C)c1ccc2c(c1)Sc1cc(N(C)C)ccc1N2` [LMTM, leuco-methylthioninium bis(hydromethanesulfonate)], the “Grouped TEAE incidence: Behavioral Symptoms” value (LMTM 8 mg/day (N = 860)) is reported as 114 (13.3%) n (%), the “Grouped TEAE incidence: Falls and Related Terms” value (LMTM 8 mg/day (N = 860)) is reported as 188 (21.9%) n (%) and the “Grouped TEAE incidence: Hepatic Function Impairment” value (LMTM 8 mg/day (N = 860)) is reported as 13 (1.5%) n (%). The “Grouped TEAE incidence: Hypersensitivity” value (LMTM 8 mg/day (N = 860)) was 42 (4.9%) n (%), the “Grouped TEAE incidence: Ischaemic Events, Inclusive of Myocardial Infarction” value (LMTM 8 mg/day (N = 860)) was 20 (2.3%) n (%) and the “Grouped TEAE incidence: Psychotic Symptoms” value (LMTM 8 mg/day (N = 860)) was 28 (3.3%) n (%). The “Grouped TEAE incidence: Renal Function Impairment” value (LMTM 8 mg/day (N = 860)) was 29 (3.4%) n (%), the “Grouped TEAE incidence: Renal and Urinary Disorders (Including Infections)” value (LMTM 8 mg/day (N = 860)) was 135 (15.7%) n (%) and the “Grouped TEAE incidence: Sleep Disorders” value (LMTM 8 mg/day (N = 860)) was 41 (4.8%) n (%). The “Grouped TEAE incidence: Targeted Gastrointestinal Events” value (LMTM 8 mg/day (N = 860)) was 183 (21.3%) n (%), the “No. (%) of Subjects Reporting at Least One TEAE” value (LMTM 8 mg/day (N = 860), All) was 720 (83.7%) n (%) and the “TEAE incidence: Abdominal pain” value (LMTM 8 mg/day (N = 860), All) was 16 (1.9%) n (%). For the same compound, the “TEAE incidence: Abdominal pain upper” value (LMTM 8 mg/day (N = 860), All) was 10 (1.2%) n (%), the “TEAE incidence: Agitation” value (LMTM 8 mg/day (N = 860), All) was 46 (5.3%) n (%) and the “TEAE incidence: Anaemia” value (LMTM 8 mg/day (N = 860), All) was 19 (2.2%) n (%). The “TEAE incidence: Anxiety” value (LMTM 8 mg/day (N = 860), All) was 52 (6.0%) n (%), the “TEAE incidence: Arthralgia” value (LMTM 8 mg/day (N = 860), All) was 28 (3.3%) n (%) and the “TEAE incidence: Atrial fibrillation” value (LMTM 8 mg/day (N = 860), All) was 17 (2.0%) n (%). For the same compound, the “TEAE incidence: Back pain” value (LMTM 8 mg/day (N = 860), All) was 31 (3.6%) n (%), the “TEAE incidence: Blood creatine phosphokinase increased” value (LMTM 8 mg/day (N = 860), All) was 18 (2.1%) n (%) and the “TEAE incidence: Blood folate decreased” value (LMTM 8 mg/day (N = 860), All) was 45 (5.2%) n (%). For the same compound, the “TEAE incidence: Bronchitis” value (LMTM 8 mg/day (N = 860), All) was 27 (3.1%) n (%), the “TEAE incidence: Cerebral microhaemorrhage” value (LMTM 8 mg/day (N = 860), All) was 24 (2.8%) n (%) and the “TEAE incidence: Confusional state” value (LMTM 8 mg/day (N = 860), All) was 22 (2.6%) n (%). For the same compound, the “TEAE incidence: Constipation” value (LMTM 8 mg/day (N = 860), All) was 23 (2.7%) n (%), the “TEAE incidence: Contusion” value (LMTM 8 mg/day (N = 860), All) was 24 (2.8%) n (%) and the “TEAE incidence: Cough” value (LMTM 8 mg/day (N = 860), All) was 37 (4.3%) n (%). The “TEAE incidence: Decreased appetite” value (LMTM 8 mg/day (N = 860), All) was 13 (1.5%) n (%), the “TEAE incidence: Dehydration” value (LMTM 8 mg/day (N = 860), All) was 17 (2.0%) n (%) and the “TEAE incidence: Depression” value (LMTM 8 mg/day (N = 860), All) was 41 (4.8%) n (%). The “TEAE incidence: Diarrhoea” value (LMTM 8 mg/day (N = 860), All) was 109 (12.7%) n (%), the “TEAE incidence: Dizziness” value (LMTM 8 mg/day (N = 860), All) was 49 (5.7%) n (%) and the “TEAE incidence: Dysuria” value (LMTM 8 mg/day (N = 860), All) was 6 (0.7%) n (%). The “TEAE incidence: Fall” value (LMTM 8 mg/day (N = 860), All) was 90 (10.5%) n (%), the “TEAE incidence: Fatigue” value (LMTM 8 mg/day (N = 860), All) was 26 (3.0%) n (%) and the “TEAE incidence: Folate deficiency” value (LMTM 8 mg/day (N = 860), All) was 17 (2.0%) n (%). For the same compound, the “TEAE incidence: Haemoglobin decreased” value (LMTM 8 mg/day (N = 860), All) was 6 (0.7%) n (%), the “TEAE incidence: Hallucination” value (LMTM 8 mg/day (N = 860), All) was 13 (1.5%) n (%) and the “TEAE incidence: Headache” value (LMTM 8 mg/day (N = 860), All) was 55 (6.4%) n (%). For the same compound, the “TEAE incidence: Hypertension” value (LMTM 8 mg/day (N = 860), All) was 20 (2.3%) n (%), the “TEAE incidence: Insomnia” value (LMTM 8 mg/day (N = 860), All) was 29 (3.4%) n (%) and the “TEAE incidence: Laceration” value (LMTM 8 mg/day (N = 860), All) was 17 (2.0%) n (%). For the same compound, the “TEAE incidence: Micturition urgency” value (LMTM 8 mg/day (N = 860), All) was 11 (1.3%) n (%), the “TEAE incidence: Nasopharyngitis” value (LMTM 8 mg/day (N = 860), All) was 40 (4.7%) n (%) and the “TEAE incidence: Nausea” value (LMTM 8 mg/day (N = 860), All) was 39 (4.5%) n (%). The “TEAE incidence: Oedema peripheral” value (LMTM 8 mg/day (N = 860), All) was 19 (2.2%) n (%), the “TEAE incidence: Pain in extremity” value (LMTM 8 mg/day (N = 860), All) was 19 (2.2%) n (%) and the “TEAE incidence: Pollakiuria” value (LMTM 8 mg/day (N = 860), All) was 19 (2.2%) n (%). The “TEAE incidence: Rash” value (LMTM 8 mg/day (N = 860), All) was 21 (2.4%) n (%), the “TEAE incidence: Suicidal ideation” value (LMTM 8 mg/day (N = 860), All) was 27 (3.1%) n (%) and the “TEAE incidence: Syncope” value (LMTM 8 mg/day (N = 860), All) was 26 (3.0%) n (%). For the same compound, the “TEAE incidence: Tremor” value (LMTM 8 mg/day (N = 860), All) was 20 (2.3%) n (%), the “TEAE incidence: Upper respiratory tract infection” value (LMTM 8 mg/day (N = 860), All) was 35 (4.1%) n (%) and the “TEAE incidence: Urinary incontinence” value (LMTM 8 mg/day (N = 860), All) was 34 (4.0%) n (%). The “TEAE incidence: Urinary tract infection” value (LMTM 8 mg/day (N = 860), All) was 76 (8.8%) n (%), the “TEAE incidence: Vitamin B12 decreased” value (LMTM 8 mg/day (N = 860), All) was 23 (2.7%) n (%) and the “TEAE incidence: Vomiting” value (LMTM 8 mg/day (N = 860), All) was 20 (2.3%) n (%). The “TEAE incidence: Weight decreased” value (LMTM 8 mg/day (N = 860), All) was 18 (2.1%) n (%), the “No. (%) of Subjects Reporting at Least One TEAE” value [1] was 86 (10.0%) n (%) and the “TEAE incidence: Abdominal pain” value [1] was 1 (0.1%) n (%). For the same compound, the “TEAE incidence: Abdominal pain upper” value [1] was 1 (0.1%) n (%), the “TEAE incidence: Agitation” value [1] was 1 (0.1%) n (%) and the “TEAE incidence: Anaemia” value [1] was 1 (0.1%) n (%). For the same compound, the “TEAE incidence: Anxiety” value [1] was 0 n (%), the “TEAE incidence: Arthralgia” value [1] was 0 n (%) and the “TEAE incidence: Atrial fibrillation” value [1] was 3 (0.3%) n (%). The “TEAE incidence: Back pain” value [1] was 1 (0.1%) n (%), the “TEAE incidence: Blood creatine phosphokinase increased” value [1] was 0 n (%) and the “TEAE incidence: Blood folate decreased” value [1] was 0 n (%). The “TEAE incidence: Bronchitis” value [1] was 0 n (%), the “TEAE incidence: Cerebral microhaemorrhage” value [1] was 0 n (%) and the “TEAE incidence: Confusional state” value [1] was 2 (0.2%) n (%). The “TEAE incidence: Constipation” value [1] was 2 (0.2%) n (%), the “TEAE incidence: Contusion” value [1] was 0 n (%) and the “TEAE incidence: Cough” value [1] was 0 n (%). The “TEAE incidence: Decreased appetite” value [1] was 0 n (%), the “TEAE incidence: Dehydration” value [1] was 4 (0.5%) n (%) and the “TEAE incidence: Depression” value [1] was 0 n (%). The “TEAE incidence: Diarrhoea” value [1] was 5 (0.6%) n (%), the “TEAE incidence: Dizziness” value [1] was 3 (0.3%) n (%) and the “TEAE incidence: Dysuria” value [1] was 0 n (%). For the same compound, the “TEAE incidence: Fall” value [1] was 4 (0.5%) n (%), the “TEAE incidence: Fatigue” value [1] was 0 n (%) and the “TEAE incidence: Folate deficiency” value [1] was 0 n (%). The “TEAE incidence: Haemoglobin decreased” value [1] was 0 n (%), the “TEAE incidence: Hallucination” value [1] was 0 n (%) and the “TEAE incidence: Headache” value [1] was 1 (0.1%) n (%). For the same compound, the “TEAE incidence: Hypertension” value [1] was 0 n (%), the “TEAE incidence: Insomnia” value [1] was 0 n (%) and the “TEAE incidence: Laceration” value [1] was 0 n (%). The “TEAE incidence: Micturition urgency” value [1] was 0 n (%), the “TEAE incidence: Nasopharyngitis” value [1] was 0 n (%) and the “TEAE incidence: Nausea” value [1] was 1 (0.1%) n (%). For the same compound, the “TEAE incidence: Oedema peripheral” value [1] was 0 n (%), the “TEAE incidence: Pain in extremity” value [1] was 1 (0.1%) n (%) and the “TEAE incidence: Pollakiuria” value [1] was 0 n (%). The “TEAE incidence: Rash” value [1] was 0 n (%), the “TEAE incidence: Suicidal ideation” value [1] was 2 (0.2%) n (%) and the “TEAE incidence: Syncope” value [1] was 1 (0.1%) n (%). The “TEAE incidence: Tremor” value [1] was 0 n (%), the “TEAE incidence: Upper respiratory tract infection” value [1] was 0 n (%) and the “TEAE incidence: Urinary incontinence” value [1] was 0 n (%). For the same compound, the “TEAE incidence: Urinary tract infection” value [1] was 1 (0.1%) n (%), the “TEAE incidence: Vitamin B12 decreased” value [1] was 0 n (%) and the “TEAE incidence: Vomiting” value [1] was 0 n (%). The “TEAE incidence: Weight decreased” value [1] was 0 n (%), the “Grouped TEAE incidence: Falls and Related Terms” value [2] was 22% and the “Grouped TEAE incidence: GI events” value [2] was 21%. The “Grouped TEAE incidence: Renal and Urinary Disorders (Including Infections)” value [2] was 16%, the “Grouped TEAE incidence: behavioural symptoms” value [2] was 13% and the “Grouped TEAE incidence: terms indicative of anaemia” value [2] was 13%.
